Test [1] concerns HIV-1 (RF strain). Description: NCI AIDS antiviral screen: inhibition of HIV-1 cytopathicity in T4 lymphocytes (CEM line), XTT viability. The test is classed as cell-based. Conditions: for EC50: NCI screen, mean value. The protocol: Three DHA-ddC (compounds 8, 9, and 10 above) and one DHA-AZT conjugate (the compound described above) were sent to the National Cancer Institute's AIDS antiviral screen to test their anti-HIV activity in vitro. The compounds were provided as solutions in ethanol. The vials containing the conjugates were sealed under argon to prevent oxygen from possibly degrading the conjugates. Instructions were provided to store the vials containing the conjugates at 4° C. and to open the vials immediately before use.
The primary screen used by the NCI for anti-HIV activity utilizes the cytopathicity of HIV-1 for human T4 lymphocytes and the inhibition of such killing by drugs that inhibit viral cytotoxicity. The experimental protocols are described by Weislow et al., (J. Natl. Cancer Inst. 81:577-586, 1989) and Bader (, whose contents are incorporated herein by reference. Briefly, the compounds are diluted first in DMSO or other appropriate solvent, then diluted 1:100 in cell culture medium before preparing serial half log10 dilutions. T4 lymphocytes (CEM line) are added, and after a brief interval HIV-1 (RF strain) is added. Appropriate controls (infected and uninfected cells without compound, and non-infected cells with the compound) are included in the plate format. The cultures are incubated at 37° C. for six days during which time the cells proliferate, the virus reproduces and kills the cells. Cell viability is measured by the ability of cells to convert a colorless tetrazolium salt (XTT) to a highly colored soluble formazan. The intensity of the color is read in a spectrophotometer using an automated system. The wells are also examined microscopically to confirm the protective activity of the compounds.
(Protection from cytopathic effect is a common read-out in antiviral testing.)

The test system of test [2] is HIV in human T4 cells. Description: Anti-HIV experiments performed at the Southern Research Institute (SRI). The settings on record: for Fold Increase in Potency: SRI, Control/Expt, relative to the parent drug (AZT or ddC). The test is classed as cell-based. From the text: The results of the experiments performed at SRI are shown in Table 2; the results were expressed in terms of inhibitory concentration
These in vitro data in human cells establish that conjugating ddC drugs to DHA achieves higher activity (between >5400 fold to 55 to 13 fold) against HIV in human T4 cells. In particular, conjugation of DHA to ddC drugs at the pyrimidine ring of ddC rather than the pentose ring is preferred based upon the unexpected results of the foregoing assays.

Setting [3] is: Human immunodeficiency virus 1, Lymphocyte.
The mark [4] stands for this setting: Human immunodeficiency virus 1, SRI experiments, read-out: Inhibitory Concentration.
The mark [5] stands for this setting: SRI experiments, read-out: Inhibitory Concentration.

The structures appear in SMILES notation. Like-named read-outs stand apart in the source and are kept apart here.

On to `Cc1cn([C@H]2CC(N=[N+]=[N-])[C@@H](CO)O2)c(=O)[nH]c1=O` (stereo partly drawn) [AZT, reference compound], for which the EC50 (in general, the midpoint of the concentration-response curve) in test [1] (setting [3]) amounted to 17.7 nM. The IC50 in test [2] (setting [4]) turned out to be 100 nM. The “Fold Increase in Potency” value in test [2] amounted to 1.0 fold.

Turning to `CC/C=C\C/C=C\C/C=C\C/C=C\C/C=C\C/C=C\CCC(=O)OC[C@H]1O[C@@H](n2cc(C)c(=O)[nH]c2=O)C[C@@H]1N=[N+]=[N-]` [DHA-AZT], in test [1], a half-maximal effect (EC50) was put at 26.2 nM. Besides, the “anti-HIV activity of the conjugate relative to that of the parent drug, AZT” value in test [1] (NCI studies) was “did not alter the anti-HIV activity”. Moreover, the IC50 in test [2] (setting [5]) was 60 nM. For the same molecule, in test [2], the “Fold Increase in Potency” value stood at 1.7 fold. The “activity relative to AZT alone” value in test [2] (same assays as the DHA-ddC conjugates) is on record as “not increased”.

Regarding `CC/C=C\C/C=C\C/C=C\C/C=C\C/C=C\C/C=C\CCC(=O)Nc1ccn([C@H]2CC[C@@H](CO)O2)c(=O)n1` [DHA-ddC 8], the “Fold Increase in Potency over ddC” value in test [1] (mean EC50 for ddC (moles/L) divided by EC50 of the conjugate (moles/L)) is reported as greater than 3807 fold. In addition, in test [2] (setting [4]), the IC50 is 6.93 nM. Moreover, in test [2], the “Fold Increase in Potency” value came to 54.8 fold.

On to `CC/C=C\C/C=C\C/C=C\C/C=C\C/C=C\C/C=C\CCC(=O)Nc1ccn([C@H]2CC[C@@H](COC(=O)CC/C=C\C/C=C\C/C=C\C/C=C\C/C=C\C/C=C\CC)O2)c(=O)n1` [DHA-ddC 9], for which the IC50 in test [2] (setting [4]) was found to be 30 nM. The “Fold Increase in Potency” value in test [2] is 12.7 fold.

On to `CC/C=C\C/C=C\C/C=C\C/C=C\C/C=C\C/C=C\CCC(=O)OC[C@@H]1CC[C@H](n2ccc(N)nc2=O)O1` [DHA-ddC 10], for which the IC50 in test [2] (setting [5]) was determined as 10 nM. For the same molecule, in test [2], the “Fold Increase in Potency” value was found to be 38 fold.

Turning to `Nc1ccn([C@H]2CC[C@@H](CO)O2)c(=O)n1` [ddC, 2′,3′-dideoxycytidine, reference compound], the response in test [1] (setting [3]) was half-maximal at 114 nM (EC50). For the same molecule, the IC50 in test [2] (Human immunodeficiency virus 1, read-out: Inhibitory Concentration) turned out to be 300 nM. In addition, the “Fold Increase in Potency” value in test [2] is 1.0 fold.

These data come from patent publication US20020025943A1, “Nucleoside analog compositions and uses thereof” (priority 1997, published 2002).
